Tested on: IgE antibodies from patients
Experiment: Wheat epitope mapping (2): overlapping 10-amino-acid peptide fragments shifted by one amino acid;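 for Rank of partial sequence as epitope binding to IgE antibody: key = sequence deemed particularly important within the common 15-residue sequence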;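 for epitope sequence binding to IgE antibody, rank (Key/Preferably/More preferably): key of grades: preferably = shorter partial sequence still acting as epitope; more preferably = sequence improving IgE binding; key = particularly important sequence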
Assay type: binding, human
In short: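 Cellulose-bound 10-mer peptides offset by one residue were probed with patient serum IgE and detected by chemiluminescence. Secondary-antibody-only signals were subtracted per peptide. Residual binding was expressed as % of the parent overlapping peptide, scored as none (<30%), poor (30–<50%), somewhat poor (50–<70%) or retained (≥70%).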

[1] = serum of patient P16 (WDEIA), sequence without X
[2] = serum of patient G1 (adult, general immediate type allergy to wheat), sequence without X
[3] = serum of patient G6 (adult, general immediate type allergy to wheat), sequence without X
[4] = serum of patient P22 (WDEIA), sequence without X
[5] = serum of patient P50 (child, general immediate type allergy to wheat), sequence without X
[6] = serum of patient P32 (WDEIA), partial sequence
[7] = serum of patient G7 (adult, general immediate type allergy to wheat), sequence without X
[8] = serum of patient P14 (WDEIA), sequence without X
[9] = serum of patient P35 (WDEIA), sequence without X
[10] = serum of patient P33 (WDEIA), sequence without X
[11] = serum of patient P2 (WDEIA), sequence without X

2612 (QLVQQLCC; REGION 1..8: note = epitope) [compound 2612]
Epitope sequence binding to IgE antibody, rank of the sequence (serum of patient G9 (adult, general immediate type allergy to wheat), partial sequence): Key

1629 (YNPD; REGION 1..4: note = epitope) [compound 1629]
Rank of partial sequence as epitope binding to IgE antibody (serum of patient P27 (WDEIA), sequence without X): Key

1434 (YLQPQQPI; REGION 1..8: note = epitope) [compound 1434]
Rank of partial sequence as epitope binding to IgE antibody [1]: Preferably

2668 (KEAAE; REGION 1..5: note = epitope) [compound 2668]
Epitope sequence binding to IgE antibody, rank of the sequence (serum of patient P57 (child, general immediate type allergy to wheat), partial sequence): Preferably

2605 (QLVQ; REGION 1..4: note = epitope) [compound 2605]
Epitope sequence binding to IgE antibody, rank of the sequence (serum of patient G3 (adult, general immediate type allergy to wheat), partial sequence): Key

2262 (RNYRVAI; REGION 1..7: note = epitope) [compound 2262]
Epitope sequence binding to IgE antibody, rank of the sequence (Key/Preferably/More preferably) [2]: Key

1925 (QFPGQQ; REGION 1..6: note = epitope) [compound 1925]
epitope sequence binding to IgE antibody, rank (Key/Preferably/More preferably) (serum of patient P13 (WDEIA)): Key

1883 (VRTLQ; REGION 1..5: note = epitope) [compound 1883]
epitope sequence binding to IgE antibody, rank (Key/Preferably/More preferably) (serum of patient P34 (WDEIA)): Key

2330 (AIRAI; REGION 1..5: note = epitope) [compound 2330]
Epitope sequence binding to IgE antibody, rank of the sequence (Key/Preferably/More preferably) (serum of patient P53 (child, general immediate type allergy to wheat), sequence without X): Key

2264 (NYRVAI; REGION 1..6: note = epitope) [compound 2264]
Epitope sequence binding to IgE antibody, rank of the sequence (Key/Preferably/More preferably) [3]: Key

2372 (TEIVL; REGION 1..5: note = epitope) [compound 2372]
Epitope sequence binding to IgE antibody, rank of the sequence (Key/Preferably/More preferably) (serum of patient P26 (WDEIA), sequence without X): Preferably

1195 (QFPPQQPYPQ; REGION 1..10: note = epitope) [compound 1195]
Epitope sequence binding to IgE antibody, rank of the sequence [4]: Key

1859 (YTVRTLQR; REGION 1..8: note = epitope) [compound 1859]
epitope sequence binding to IgE antibody, rank (Key/Preferably/More preferably) (serum of patient P19 (WDEIA)): Preferably

2680 (YKGPTL; REGION 1..6: note = epitope) [compound 2680]
Epitope sequence binding to IgE antibody, rank of the sequence (serum of patient P17 (WDEIA), partial sequence): Key

1647 (YNPD; REGION 1..4: note = epitope) [compound 1647]
Rank of partial sequence as epitope binding to IgE antibody (serum of patient P36 (WDEIA), sequence without X): Key

1885 (RTLQ; REGION 1..4: note = epitope) [compound 1885]
epitope sequence binding to IgE antibody, rank (Key/Preferably/More preferably) (serum of patient P35 (WDEIA)): Key

2461 (LKAWSG; REGION 1..6: note = epitope) [compound 2461]
Epitope sequence binding to IgE antibody, rank of the sequence (Key/Preferably/More preferably/Further preferably) [5]: More preferably

1439 (SQQQA; REGION 1..5: note = epitope) [compound 1439]
Rank of partial sequence as epitope binding to IgE antibody [1]: Key

1908 (QVPLVQQ; REGION 1..7: note = epitope) [compound 1908]
epitope sequence binding to IgE antibody, rank (Key/Preferably/More preferably) (serum of patient P7 (WDEIA)): Preferably

1651 (NPDKVP; REGION 1..6: note = epitope) [compound 1651]
Rank of partial sequence as epitope binding to IgE antibody [5]: Key

1760 (EVSSYLKKV; REGION 1..9: note = epitope) [compound 1760]
epitope sequence binding to IgE antibody, rank (Key/Preferably/More preferably) (serum of patient P18 (WDEIA)): Key

2566 (YQLVQQLCC; REGION 1..9: note = epitope) [compound 2566]
Epitope sequence binding to IgE antibody, rank of the sequence (serum of patient P25 (WDEIA), partial sequence): Key

2655 (EAAEMNK; REGION 1..7: note = epitope) [compound 2655]
Epitope sequence binding to IgE antibody, rank of the sequence [6]: Preferably

1499 (YLQPQQPISQ; REGION 1..10: note = epitope) [compound 1499]
Rank of partial sequence as epitope binding to IgE antibody [7]: More preferably

1385 (KPWQQQPLP; REGION 1..9: note = epitope) [compound 1385]
Epitope sequence binding to IgE antibody, rank of the sequence [8]: Preferably

2480 (KAWSG; REGION 1..5: note = epitope) [compound 2480]
Epitope sequence binding to IgE antibody, rank of the sequence (Key/Preferably/More preferably) (serum of patient G2 (adult, general immediate type allergy to wheat), sequence without X): Key

1833 (KFLKN; REGION 1..5: note = epitope) [compound 1833]
epitope sequence binding to IgE antibody, rank (Key/Preferably/More preferably) (serum of patient G7 (adult, general immediate type allergy to wheat)): Key

2600 (QQLC; REGION 1..4: note = epitope) [compound 2600]
Epitope sequence binding to IgE antibody, rank of the sequence (serum of patient P53 (child, general immediate type allergy to wheat), partial sequence): Key

2706 (YKIGGIGTV; REGION 1..9: note = epitope) [compound 2706]
Epitope sequence binding to IgE antibody, rank of the sequence (serum of patient P8 (WDEIA), partial sequence): Preferably

2609 (QLVQQLCC; REGION 1..8: note = epitope) [compound 2609]
Epitope sequence binding to IgE antibody, rank of the sequence (serum of patient G7 (adult, general immediate type allergy to wheat), partial sequence): Key

1431 (YLQPQQP; REGION 1..7: note = epitope) [compound 1431]
Rank of partial sequence as epitope binding to IgE antibody (serum of patient P15 (WDEIA), sequence without X): Key

2504 (SSQVSF; REGION 1..6: note = epitope) [compound 2504]
Epitope sequence binding to IgE antibody, rank of the sequence (serum of patient P16 (WDEIA), partial sequence): Preferably

2470 (LKAWSGK; REGION 1..7: note = epitope) [compound 2470]
Epitope sequence binding to IgE antibody, rank of the sequence (Key/Preferably/More preferably) (serum of patient P52 (child, general immediate type allergy to wheat), sequence without X): Preferably

2588 (QQLC; REGION 1..4: note = epitope) [compound 2588]
Epitope sequence binding to IgE antibody, rank of the sequence [6]: Key

2682 (YKGPTL; REGION 1..6: note = epitope) [compound 2682]
Epitope sequence binding to IgE antibody, rank of the sequence (serum of patient P22 (WDEIA), partial sequence): Preferably

1702 (SQVIIM; REGION 1..6: note = epitope) [compound 1702]
Rank of partial sequence as epitope binding to IgE antibody (serum of patient P25 (WDEIA), sequence without X): Key

2299 (GIDK; REGION 1..4: note = epitope) [compound 2299]
Epitope sequence binding to IgE antibody, rank of the sequence (Key/Preferably/More preferably) [2]: Key

1901 (VPLVQ; REGION 1..5: note = epitope) [compound 1901]
epitope sequence binding to IgE antibody, rank (Key/Preferably/More preferably) (serum of patient P3 (WDEIA)): Key

1487 (YLQPQQPISQ; REGION 1..10: note = epitope) [compound 1487]
Rank of partial sequence as epitope binding to IgE antibody [9]: Preferably

1567 (PFPQTQQ; REGION 1..7: note = epitope) [compound 1567]
Rank of partial sequence as epitope binding to IgE antibody (serum of patient P3 (WDEIA), sequence without X): Preferably

1786 (KEVSSYLKK; REGION 1..9: note = epitope) [compound 1786]
epitope sequence binding to IgE antibody, rank (Key/Preferably/More preferably) (serum of patient G9 (adult, general immediate type allergy to wheat)): Preferably

1668 (FVPISG; REGION 1..6: note = epitope) [compound 1668]
Rank of partial sequence as epitope binding to IgE antibody (serum of patient G3 (adult, general immediate type allergy to wheat), sequence without X): Key

2569 (QLVQQL; REGION 1..6: note = epitope) [compound 2569]
Epitope sequence binding to IgE antibody, rank of the sequence (serum of patient P27 (WDEIA), partial sequence): Preferably

1637 (YNPDKVPF; REGION 1..8: note = epitope) [compound 1637]
Rank of partial sequence as epitope binding to IgE antibody [10]: Key

2275 (KRVIERFEK; REGION 1..9: note = epitope) [compound 2275]
Epitope sequence binding to IgE antibody, rank of the sequence (Key/Preferably/More preferably) (serum of patient P8 (WDEIA), sequence without X): Key

1183 (QQFPPQQ; REGION 1..7: note = epitope) [compound 1183]
Epitope sequence binding to IgE antibody, rank of the sequence [8]: Key

1495 (YLQPQQPI; REGION 1..8: note = epitope) [compound 1495]
Rank of partial sequence as epitope binding to IgE antibody [3]: Key

1968 (QFPGQQ; REGION 1..6: note = epitope) [compound 1968]
epitope sequence binding to IgE antibody, rank (Key/Preferably/More preferably) (serum of patient P34 (WDEIA)): Key

1333 (INVEN; REGION 1..5: note = epitope) [compound 1333]
Epitope sequence binding to IgE antibody, rank of the sequence [4]: Key

1252 (PQQPP; REGION 1..5: note = epitope) [compound 1252]
Epitope sequence binding to IgE antibody, rank of the sequence [9]: Key

1441 (YLQPQQPISQ; REGION 1..10: note = epitope) [compound 1441]
Rank of partial sequence as epitope binding to IgE antibody (serum of patient P18 (WDEIA), sequence without X): Preferably

1301 (SINVEN; REGION 1..6: note = epitope) [compound 1301]
Epitope sequence binding to IgE antibody, rank of the sequence (Key/Preferably/More preferably/Further preferably) [11]: Key

1282 (LPRS; REGION 1..4: note = epitope) [compound 1282]
Epitope sequence binding to IgE antibody, rank of the sequence [10]: Key

2415 (IDRCAYV; REGION 1..7: note = epitope) [compound 2415]
Epitope sequence binding to IgE antibody, rank of the sequence (Key/Preferably/More preferably) [7]: Preferably

1368 (KPWQQQ; REGION 1..6: note = epitope) [compound 1368]
Epitope sequence binding to IgE antibody, rank of the sequence (Key/Preferably/More preferably/Further preferably) [11]: Key

1654 (YNPDKVPF; REGION 1..8: note = epitope) [compound 1654]
Rank of partial sequence as epitope binding to IgE antibody (serum of patient P51 (child, general immediate type allergy to wheat), sequence without X): Key

1551 (QQQQFLGQ; REGION 1..8: note = epitope) [compound 1551]
Rank of partial sequence as epitope binding to IgE antibody (serum of patient P34 (WDEIA), sequence without X): Preferably

Reference: patent US20240393292A1, “ALLERGY ANTIGEN AND EPITOPE THEREOF” (HOYU CO., LTD., priority 2019, published 2024)
